In ChEMBL document CHEMBL1131600 (J Med Chem, 1998):

What was measured:
Type in all cases: functional, organism-based
Plasmodium falciparum [1] = assay: In vitro antimalarial activity against chloroquine-sensitive Plasmodium falciparum NF54
Plasmodium falciparum [2] = assay: In vitro antimalarial activity against chloroquine-sensitive Plasmodium falciparum NF54 in C4beta-stannylmethyl trioxanes
Plasmodium falciparum [3] = assay: In vitro antimalarial activity against chloroquine-sensitive Plasmodium falciparum NF54 in C4alpha-alkylated trioxanes

Row | Compound | IC50 (Plasmodium falciparum [1]; Plasmodium falciparum) [µM] | IC50 (Plasmodium falciparum [2]; Plasmodium falciparum) [µM] | IC50 (Plasmodium falciparum [3]) [µM] | further results
1 | CO[C@H]1O[C@@]2(C)OOC13CCCC[C@@H]3C[C@@H]2CO | 0.23 |  |  | 
2 | Tributyl-((6R,9S,12S)-12-methoxy-9-methyl-10,11,13-trioxa-tricyclo[7.2.2.01,6]tridec-8-ylmethyl)-stannane |  |  |  | IC50 (Plasmodium falciparum [1]): > 2.5 µM
3 | CO[C@H]1O[C@@]2(C)OOC13CCCC[C@@H]3CC2c1ccccc1 (some centres undefined) |  | 2 | > 2.5 | 
4 | ((6R,9S,12S)-12-Methoxy-9-methyl-10,11,13-trioxa-tricyclo[7.2.2.01,6]tridec-8-ylmethyl)-triphenyl-stannane |  |  |  | IC50 (Plasmodium falciparum [1]): > 2.5 µM
5 | CO[C@H]1O[C@@]2(C)OOC13CCCC[C@@H]3CC2Cc1ccc(COCc2ccc(F)cc2)cc1 (some centres undefined) | 0.24 |  |  | 
6 | CO[C@H]1O[C@@]2(C)OOC13[C@H](CCOCc1ccccc1)CCC[C@@H]3C[C@@H]2C | 0.011 |  |  | 
7 | CO[C@H]1O[C@@]2(C)OOC13CCCC[C@@H]3CC2CO (some centres undefined) |  | 0.23 | > 2.5 | 
8 | CO[C@H]1O[C@]2(C)CC[C@H]3CCC[C@@H](CCOCc4ccc(F)cc4)C31OO2 | 0.031 |  |  | 
9 | ((6R,9S,12S)-12-Methoxy-9-methyl-10,11,13-trioxa-tricyclo[7.2.2.01,6]tridec-8-ylmethyl)-trimethyl-stannane |  |  |  | IC50 (Plasmodium falciparum [1]): > 2.5 µM
10 | CO[C@H]1O[C@@]2(C)OOC13CCCC[C@@H]3C[C@@H]2Cc1ccc(CO)cc1 | 0.6 |  |  | 
11 | CO[C@H]1O[C@@]2(C)OOC13CCCC[C@@H]3C[C@@H]2COCc1ccc(F)cc1 | 0.019 |  |  | 
12 | CO[C@H]1O[C@@]2(C)OOC13[C@H](CCO)CCC[C@@H]3CC2C[Si](C)(C)C (some centres undefined) |  | 0.24 | > 2.5 | 
13 | CO[C@H]1O[C@]2(C)CC[C@H]3CCC[C@@H](CCO)C31OO2 | 0.12 |  |  | 
14 | CO[C@H]1O[C@@]2(C)OOC13[C@H](CCO)CCC[C@@H]3CC2C (some centres undefined) |  | 0.0077 | 1.3 | 
15 | CO[C@H]1O[C@@]2(C)OOC13[C@H](CCOCc1ccc(F)cc1)CCC[C@@H]3C[C@@H]2C | 0.013 |  |  | 
16 | 2-((2S,6R,9S,12S)-12-Methoxy-9-methyl-8-trimethylstannanylmethyl-10,11,13-trioxa-tricyclo[7.2.2.0 1,6 ]tridec-2-yl)-ethanol |  |  |  | IC50 (Plasmodium falciparum [2]): > 2.5 µM
17 | CO[C@H]1O[C@]2(C)CC[C@H]3CCC[C@@H](CCOCc4ccccc4)C31OO2 | 0.025 |  |  | 
18 | CO[C@H]1O[C@@]2(C)OOC13CCCC[C@@H]3CC2Cc1ccccc1 (some centres undefined) |  | 0.31 | > 2.5 | 
19 | CO[C@H]1O[C@@]2(C)OOC13[C@H](CCOP(=O)(Oc1ccccc1)Oc1ccccc1)CCC[C@@H]3C[C@@H]2C | 0.0069 |  |  | 
20 | CO[C@H]1O[C@@]2(C)OOC13[C@H](CCO)CCC[C@@H]3CC2Cc1ccccc1 (some centres undefined) |  | 0.0083 | 1.7 | 
21 | CO[C@H]1O[C@@]2(C)OOC13CCCC[C@@H]3CC2Cc1ccc(CO)cc1 (some centres undefined) |  | 0.6 | > 2.5 | 
22 | CO[C@H]1O[C@@]2(C)OOC13[C@H](CCO)CCC[C@@H]3C[C@@H]2C | 0.0077 |  |  | 
